These results are taken from patent publication US10626081B2, “Farnesoid X receptor agonists and uses thereof” (Metacrine, Inc., priority 2015, dated 2020).

Broadly, the EC50 is the midpoint of the concentration-response curve. A high value points to a less potent agent.

The assay has as its target T1, FXR (Homo sapiens, UniProt Q96RI1).
T1 construct: expressed in transfected cells; host or cells: CV-1 cells
T1 sequence (Q96RI1 1-486): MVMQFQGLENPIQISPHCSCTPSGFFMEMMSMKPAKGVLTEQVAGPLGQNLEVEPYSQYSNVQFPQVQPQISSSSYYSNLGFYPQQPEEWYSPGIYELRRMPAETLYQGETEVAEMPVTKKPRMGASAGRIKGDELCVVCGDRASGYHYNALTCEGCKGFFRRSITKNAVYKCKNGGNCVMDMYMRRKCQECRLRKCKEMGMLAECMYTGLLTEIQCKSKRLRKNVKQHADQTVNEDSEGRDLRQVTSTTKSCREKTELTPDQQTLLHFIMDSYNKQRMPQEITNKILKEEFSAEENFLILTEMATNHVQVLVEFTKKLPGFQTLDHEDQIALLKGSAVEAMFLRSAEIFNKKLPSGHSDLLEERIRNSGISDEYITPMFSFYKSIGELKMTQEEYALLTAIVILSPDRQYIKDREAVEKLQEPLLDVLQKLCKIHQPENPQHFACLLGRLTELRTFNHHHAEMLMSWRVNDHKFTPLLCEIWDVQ
T1 sequence (P19793 1-462 partner): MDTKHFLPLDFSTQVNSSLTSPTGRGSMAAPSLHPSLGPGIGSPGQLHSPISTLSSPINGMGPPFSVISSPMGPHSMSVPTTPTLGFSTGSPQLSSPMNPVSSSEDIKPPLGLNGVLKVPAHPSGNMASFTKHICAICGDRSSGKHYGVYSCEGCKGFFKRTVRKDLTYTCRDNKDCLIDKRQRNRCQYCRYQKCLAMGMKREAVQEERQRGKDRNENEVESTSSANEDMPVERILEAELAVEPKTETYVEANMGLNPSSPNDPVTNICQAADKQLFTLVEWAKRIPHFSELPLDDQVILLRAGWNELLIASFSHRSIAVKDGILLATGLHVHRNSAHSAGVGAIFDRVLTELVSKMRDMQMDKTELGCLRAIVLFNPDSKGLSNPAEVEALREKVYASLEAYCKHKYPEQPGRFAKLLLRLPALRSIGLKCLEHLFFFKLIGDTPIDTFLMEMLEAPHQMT
Put plainly: In Vitro FXR Assay (TK): TK-ECRE-luc reporter in transfected CV-1 cells. Particulars: CV-1 cells transfected with hFXR, hRXR, 18 h incubation, luminescence. The format is cell-based. The procedure, abridged:
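Luciferase read-out from lysed CV-1 cells exposed 18 h to DMSO-diluted compounds. Cells had been transfected overnight with expression plasmids for hFXR and hRXR plus TK-ECRE-luc reporter and pCMX-YFP, grown in charcoal-stripped serum at 37 °C, 5% CO2.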
In turn, `COC(=O)/C=C/c1cccc(N(Cc2ccc(-c3ccc(N(C)C)cc3)cc2)C(=O)C2(C)CCCCC2)c1` [13.3, (E)-Methyl 3-(3-(N-((4′-(dimethylamino)-[1,1′-biphenyl]-4-yl)methyl)-1-methylcyclohexane-carboxamido)phenyl)acrylate] returned an EC50 of 1 to 10 µM.

`COC(=O)/C=C/c1cccc(N(Cc2ccc(N(C)C(=O)c3ccccc3)cc2)C(=O)C2CCCCC2)c1` [compound 101, (E)-Methyl 3-(3-(N-(4-(N-methylbenzamido)benzyl)cyclohexane-carboxamido)phenyl)acrylate]: the half-maximal effective concentration (EC50) was above 10 µM.

Regarding `COC(=O)/C=C/c1cccc(N(Cc2ccc(-c3ccc(N(C)C)cc3)cc2)C(=O)[C@@H]2CCCC[C@H]2O)c1` (relative stereo) [13.25, trans-(E)-Methyl 3-(3-(N-((4′-(dimethylamino)-[1,1′-biphenyl]-4-yl)methyl)-2-hydroxycyclohexanecarboxamido)phenyl)acrylate], the EC50 lay in the range of 1 to 10 µM.

In turn, `COC(=O)/C=C/c1cccc(N(Cc2ccc(-c3ccc(OC)c(C)c3)cc2)C(=O)C2CCN(S(C)(=O)=O)CC2)c1` [62.17, (E)-Methyl 3-(3-(N-((4′-methoxy-3′-methyl-[1,1′-biphenyl]-4-yl)methyl)-1-(methylsulfonyl)piperidine-4-carboxamido)phenyl)acrylate] registered a concentration giving a half-maximal response (EC50) of 1 to 10 µM.

`CN(C)c1ccc(-c2ccc(CN(C(=O)C3CCCCC3)c3cccc(/C=C/C(=O)OCc4ccccc4)c3)cc2)cc1` [86.7, (E)-Benzyl 3-(3-(N-((4′-(dimethylamino)-[1,1′-biphenyl]-4-yl)methyl)cyclohexanecarboxamido)phenyl) acrylate] returned an EC50 above 10 µM.

As to `COC(=O)/C=C/c1cccc(N(Cc2ccc(-c3ccc(N(C)C)cc3)cc2)C(=O)c2ccc(OCCO)cc2)c1` [13.22, (E)-Methyl 3-(3-(N-((4′-(dimethylamino)-[1,1′-biphenyl]-4-yl)methyl)-4-(2-hydroxyethoxy)benzamido)phenyl)acrylate], the concentration giving a half-maximal response (EC50) was at most 1 µM.

In turn, `COC(=O)/C=C/c1cccc(N(Cc2ccc(-c3ccc(N(C)C)cc3)cc2)C(=O)C2CCCOC2)c1` (stereo not shown) [17.3, (E)-Methyl 3-(3-(N-((4′-(dimethylamino)-[1,1′-biphenyl]-4-yl)methyl)tetrahydro-2H-pyran-3-carboxamido)phenyl)acrylate] showed an EC50 of 1 to 10 µM.

Regarding `COC(=O)/C=C/c1cccc(N(Cc2ccc(-c3ccc4scnc4c3)cc2)C(=O)C2CCCCC2)c1` [75.14, (E)-Methyl 3-(3-(N-(4-(benzo[d]thiazol-5-yl)benzyl)cyclohexanecarboxamido)phenyl) acrylate], the EC50 was at most 1 µM.

As to `COC(=O)/C=C/c1cccc(N(Cc2ccc(-c3ccc(N(C)C)cc3)cc2)C(=O)[C@H]2CC[C@H](NS(C)(=O)=O)CC2)c1` [98.2, trans-(E)-Methyl 3-(3-(N-((4′-(dimethylamino)-[1,1′-biphenyl]-4-yl)methyl)-4-(methylsulfonamido)cyclohexane-carboxamido)phenyl)acrylate], the EC50 was at most 1 µM.

Molecule `COC(=O)/C=C/c1cccc(N(Cc2ccc(-c3ccc(N(C)C)cc3)cc2)C(=O)[C@H]2CC[C@H](N)CC2)c1` [compound 97, (E)-Methyl 3-(3-(trans-4-amino-N-((4′-(dimethylamino)-[1,1′-biphenyl]-4-yl)methyl)cyclohexanecarboxamido)phenyl) acrylate] showed an EC50 above 10 µM.

Turning to `CN(C)c1ccc(-c2ccc(CN(C(=O)C3CCCCC3)c3cccc(/C=C/C(=O)OCC(F)(F)F)c3)cc2)cc1` [86.6, (E)-2,2,2-Trifluoroethyl 3-(3-(N-((4′-(dimethylamino)-[1,1′-biphenyl]-4-yl)methyl)cyclohexanecarboxamido)phenyl) acrylate], the EC50 was 1 to 10 µM.

Molecule `COC(=O)/C=C/c1cccc(N(Cc2ccc(-c3ccc(N(C)C)cc3)cc2)C(=O)C2CCC([S+](C)[O-])CC2)c1` (stereo not shown) [13.20, (E)-Methyl 3-(3-(N-((4′-(dimethylamino)-[1,1′-biphenyl]-4-yl)methyl)-4-(methylsulfinyl)cyclohexanecarboxamido)phenyl)acrylate] had a 50% effective concentration (EC50) of 1 to 10 µM.

In turn, `COC(=O)/C=C/c1cccc(N(Cc2ccc(-c3ccc(N(C)C)cc3)cc2)C(=O)C2CCC(=O)NC2)c1` (stereo not shown) [13.17, (E)-Methyl 3-(3-(N-((4′-(dimethylamino)-[1,1′-biphenyl]-4-yl)methyl)-6-oxopiperidine-3-carboxamido)phenyl)acrylate] registered a 50% effective concentration (EC50) of 1 to 10 µM.

Molecule `CC(C)=CCc1cccc(N(Cc2ccc(-c3ccc(N(C)C)cc3)cc2)C(=O)C2CCCCC2)c1` [compound 99, N-((4′-(Dimethylamino)-[1,1′-biphenyl]-4-yl)methyl)-N-(3-(3-methylbut-2-en-1-yl)phenyl) cyclohexanecarboxamide] returned an EC50 above 10 µM.

Molecule `COC(=O)/C=C/c1cccc(N(Cc2ccc(-c3ccc(S(C)(=O)=O)c(Cl)c3)cc2)C(=O)C2CCCCC2)c1` [75.10, (E)-Methyl 3-(3-(N-((3′-chloro-4′-(methylsulfonyl)-[1,1′-biphenyl]-4-yl)methyl)cyclohexanecarboxamido)phenyl) acrylate] came in with an EC50 above 10 µM.

In turn, `COC(=O)/C=C/c1cccc(N(Cc2ccc(-c3ccc(N(C)C)cc3)cc2C#N)C(=O)C2CCCCC2)c1` [62.12, (E)-Methyl 3-(3-(N-((3-cyano-4′-(dimethylamino)-[1,1′-biphenyl]-4-yl)methyl)cyclohexanecarboxamido)phenyl) acrylate] came in with an EC50 of 1 to 10 µM.

`COC(=O)/C=C/c1cccc(N(Cc2ccc(-c3ccc4cnoc4c3)cc2)C(=O)C2CCCCC2)c1` [75.13, (E)-Methyl 3-(3-(N-(4-(benzo[d]isoxazol-6-yl)benzyl)cyclohexanecarboxamido)phenyl) acrylate] gave an EC50 above 10 µM.

In turn, `COC(=O)/C=C/c1cccc(N(Cc2ccc(N(C)Cc3ccccc3)cc2)C(=O)C2CCCCC2)c1` [compound 103, (E)-Methyl 3-(3-(N-(4-(benzyl(methyl)amino)benzyl)cyclo-hexanecarboxamido)phenyl)acrylate] came in with an EC50 above 10 µM.

Consider `COC(=O)/C=C/c1cccc(N(Cc2ccc(-c3ccc(N(C)C)cc3)cc2)C(=O)C2CCS(=O)(=O)CC2)c1` [13.8, (E)-Methyl 3-(3-(N-((4′-(dimethylamino)-[1,1′-biphenyl]-4-yl)methyl)-1,1-dioxidotetrahydro-2H-thiopyran-4-carboxamido)phenyl)acrylate], for which the EC50 is above 10 µM.

For `COC(=O)/C=C/c1cc(F)cc(N(Cc2ccc(-c3ccc(N(C)C)cc3)cc2)C(=O)C2CCCCC2)c1` [13.4, (E)-Methyl 3-(3-(N-((4′-(dimethylamino)-[1,1′-biphenyl]-4-yl)methyl)cyclohexanecarboxamido)-5-fluorophenyl)acrylate], the EC50 was at most 1 µM.

`COC(=O)/C=C/c1cccc(N(Cc2ccc(-c3ccc(N(C)C)cc3)cc2)C(=O)C2CN(S(C)(=O)=O)C2)c1` [13.11, (E)-Methyl 3-(3-(N-((4′-(dimethylamino)-[1,1′-biphenyl]-4-yl)methyl)-1-(methylsulfonyl)azetidine-3-carboxamido)phenyl)acrylate] displayed an EC50 of 1 to 10 µM.

Molecule `COC(=O)/C=C/c1cccc(N(Cc2ccc(-c3ccc(N(C)C)cc3)cc2)C(=O)[C@@H]2CCC[C@@H](O)C2)c1` (relative stereo) [13.28, trans-(E)-Methyl 3-(3-(N-((4′-(dimethylamino)-[1,1′-biphenyl]-4-yl)methyl)-3-hydroxycyclohexanecarboxamido)phenyl)acrylate] returned an EC50 above 10 µM.
